# Laboratory results reported in patent US9957263B2, “Bromodomain inhibitors” (AbbVie Inc., priority 2013, dated 2018).
# Tests used:
# [1] = target: BRD4 (BDII_E352-M457) (Homo sapiens (Human), UniProt O60885); experiment: TR-FRET bromodomain binding assay, BRD4 second bromodomain; conditions: His-tagged BD2, Alexa647-labeled probe 30 nM
# Procedure, shortened: (§1)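 His-tagged BRD4 BD1 (K57-E168) or BD2 at 8 nM, 1 nM Eu-anti-His antibody and Alexa647 BET-inhibitor probe (100 nM for BDI, 30 nM for BDII) in pH 6.0 phosphate buffer, 2% DMSO, compound 50 μM-0.85 nM; 1 h at RT, TR-FRET read. IC50 by 4-parameter fit, Ki from probe Kd and concentration.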
# [2] = target: BRD4 (BDI_K57-E168) (Homo sapiens (Human), UniProt O60885); experiment: TR-FRET bromodomain binding assay, BRD4 first bromodomain; conditions: His-tagged BD1, Alexa647-labeled probe 100 nM
# Procedure, shortened: as §1
Ki [1] [nM],Ki [2] [nM],Structure (SMILES)
5.8,6,"Cn1cc(-c2cc(S(C)(=O)=O)ccc2NC2CCN(S(=O)(=O)Cc3ccccc3)CC2)c2cc[nH]c2c1=O [Example 101, 4-[2-{[1-(benzylsulfonyl)piperidin-4-yl]amino}-5-(methylsulfonyl)phenyl]-6-methyl-1,6-dihydro-7H-pyrrolo[2,3-c]pyridin-7-one]"
4.9,4.1,"CC(=O)Nc1ccc(S(=O)(=O)N2CCC(Nc3ccc(S(C)(=O)=O)cc3-c3cn(C)c(=O)c4[nH]ccc34)CC2)cc1 [Example 103, N-{4-[(4-{[2-(6-methyl-7-oxo-6,7-dihydro-1H-pyrrolo[2,3-c]pyridin-4-yl)-4-(methylsulfonyl)phenyl]amino}piperidin-1-yl)sulfonyl]phenyl}acetamide]"
4,4.6,"COc1ccc(S(=O)(=O)N2CCC(Nc3ccc(S(C)(=O)=O)cc3-c3cn(C)c(=O)c4[nH]ccc34)CC2)cc1 [Example 104, 4-[2-({1-[(4-methoxyphenyl)sulfonyl]piperidin-4-yl}amino)-5-(methylsulfonyl)phenyl]-6-methyl-1,6-dihydro-7H-pyrrolo[2,3-c]pyridin-7-one]"
17,7.2,"Cn1cc(-c2cc(S(C)(=O)=O)ccc2NC2CCN(S(=O)(=O)c3cccc(C#N)c3)CC2)c2cc[nH]c2c1=O [Example 105, 3-[(4-{[2-(6-methyl-7-oxo-6,7-dihydro-1H-pyrrolo[2,3-c]pyridin-4-yl)-4-(methylsulfonyl)phenyl]amino}piperidin-1-yl)sulfonyl]benzonitrile]"
6.5,7.9,"Cn1cc(-c2cc(S(C)(=O)=O)ccc2NC2CCN(S(=O)(=O)c3cccs3)CC2)c2cc[nH]c2c1=O [Example 106, 6-methyl-4-[5-(methylsulfonyl)-2-{[1-(thiophen-2-ylsulfonyl)piperidin-4-yl]amino}phenyl]-1,6-dihydro-7H-pyrrolo[2,3-c]pyridin-7-one]"
8.9,3,"Cn1cc(-c2cc(S(C)(=O)=O)ccc2N[C@H]2CC[C@H](NCc3cccs3)CC2)c2cc[nH]c2c1=O [Example 107, 6-methyl-4-[5-(methylsulfonyl)-2-({trans-4-[(thiophen-2-ylmethyl)amino]cyclohexyl}amino)phenyl]-1,6-dihydro-7H-pyrrolo[2,3-c]pyridin-7-one]"
5.6,3.4,"CC(=O)Nc1ccc(CN[C@H]2CC[C@H](Nc3ccc(S(C)(=O)=O)cc3-c3cn(C)c(=O)c4[nH]ccc34)CC2)cc1 [Example 108, N-(4-{[(trans-4-{[2-(6-methyl-7-oxo-6,7-dihydro-1H-pyrrolo[2,3-c]pyridin-4-yl)-4-(methylsulfonyl)phenyl]amino}cyclohexyl)amino]methyl}phenyl)acetamide]"
8.3,1.6,"Cn1cc(-c2cc(S(C)(=O)=O)ccc2N[C@H]2CC[C@H](NCc3ccc(F)cc3F)CC2)c2cc[nH]c2c1=O [Example 109, 4-[2-({trans-4-[(2,4-difluorobenzyl)amino]cyclohexyl}amino)-5-(methylsulfonyl)phenyl]-6-methyl-1,6-dihydro-7H-pyrrolo[2,3-c]pyridin-7-one]"
12,4.6,"COCCN[C@H]1CC[C@H](Nc2ccc(S(C)(=O)=O)cc2-c2cn(C)c(=O)c3[nH]ccc23)CC1 [Example 111, 4-[2-({trans-4-[(2-methoxyethyl)amino]cyclohexyl}amino)-5-(methylsulfonyl)phenyl]-6-methyl-1,6-dihydro-7H-pyrrolo[2,3-c]pyridin-7-one]"
10,5.4,"CSCCCN[C@H]1CC[C@H](Nc2ccc(S(C)(=O)=O)cc2-c2cn(C)c(=O)c3[nH]ccc23)CC1 [Example 112, 6-methyl-4-{2-[(trans-4-{[3-(methylsulfanyl)propyl]amino}cyclohexyl)amino]-5-(methylsulfonyl)phenyl}-1,6-dihydro-7H-pyrrolo[2,3-c]pyridin-7-one]"
7,2.5,"Cn1cc(-c2cc(S(C)(=O)=O)ccc2N[C@H]2CC[C@H](NCc3ccc(Cl)cc3)CC2)c2cc[nH]c2c1=O [Example 113, 4-[2-({trans-4-[(4-chlorobenzyl)amino]cyclohexyl}amino)-5-(methylsulfonyl)phenyl]-6-methyl-1,6-dihydro-7H-pyrrolo[2,3-c]pyridin-7-one]"
80.7,6.93,"Cn1cc(-c2cc(S(C)(=O)=O)ccc2Oc2ccc(F)cc2F)c2cc(CN3CCN(c4nccs4)CC3)[nH]c2c1=O [Example 114, 4-[2-(2,4-difluorophenoxy)-5-(methylsulfonyl)phenyl]-6-methyl-2-{[4-(1,3-thiazol-2-yl)piperazin-1-yl]methyl}-1,6-dihydro-7H-pyrrolo[2,3-c]pyridin-7-one]"
120,5.22,"Cn1cc(-c2cc(S(C)(=O)=O)ccc2Oc2ccc(F)cc2F)c2cc(CN3CCN(C4CC4)CC3)[nH]c2c1=O [Example 115, 2-[(4-cyclopropylpiperazin-1-yl)methyl]-4-[2-(2,4-difluorophenoxy)-5-(methylsulfonyl)phenyl]-6-methyl-1,6-dihydro-7H-pyrrolo[2,3-c]pyridin-7-one]"
98.4,3.33,"Cn1cc(-c2cc(S(C)(=O)=O)ccc2Oc2ccc(F)cc2F)c2cc(CN3CCN(C4CCOCC4)CC3)[nH]c2c1=O [Example 116, 4-[2-(2,4-difluorophenoxy)-5-(methylsulfonyl)phenyl]-6-methyl-2-{[4-(tetrahydro-2H-pyran-4-yl)piperazin-1-yl]methyl}-1,6-dihydro-7H-pyrrolo[2,3-c]pyridin-7-one]"
3.39,6.09,"CCS(=O)(=O)c1ccc(Oc2ccc(F)cc2F)c(-c2cn(C)c(=O)c3[nH]c(-c4ccnn4-c4ccccc4)cc23)c1 [Example 117, 4-[2-(2,4-difluorophenoxy)-5-(ethylsulfonyl)phenyl]-6-methyl-2-(1-phenyl-1H-pyrazol-5-yl)-1,6-dihydro-7H-pyrrolo[2,3-c]pyridin-7-one]"
367,99.2,"CCS(=O)(=O)c1ccc(Oc2ccc(F)cc2F)c(-c2cn(C)c(=O)c3[nH]c(-c4cccnc4N4CCOCC4)cc23)c1 [Example 118, 4-[2-(2,4-difluorophenoxy)-5-(ethylsulfonyl)phenyl]-6-methyl-2-[2-(morpholin-4-yl)pyridin-3-yl]-1,6-dihydro-7H-pyrrolo[2,3-c]pyridin-7-one]"
6.69,1510,"CCNC(=O)c1cc2c(-c3cc(S(=O)(=O)CC)ccc3Oc3c(C)cccc3NCC3CC3)cn(C)c(=O)c2[nH]1 [Example 119, 4-[2-{2-[(cyclopropylmethyl)amino]-6-methylphenoxy}-5-(ethylsulfonyl)phenyl]-N-ethyl-6-methyl-7-oxo-6,7-dihydro-1H-pyrrolo[2,3-c]pyridine-2-carboxamide]"

Structure (SMILES),Ki [1] [nM],Ki [2] [nM]
"Cn1cc(-c2cc(S(C)(=O)=O)ccc2N[C@H]2CC[C@H](NCc3ccc4ccccc4c3)CC2)c2cc[nH]c2c1=O [Example 110, 6-methyl-4-[5-(methylsulfonyl)-2-({trans-4-[(naphthalen-2-ylmethyl)amino]cyclohexyl}amino)phenyl]-1,6-dihydro-7H-pyrrolo[2,3-c]pyridin-7-one]",2.2,1.1
